Read-outs that look alike come from different tables or passages of the source.

As a reminder, the EC50 is the concentration at which the effect is half-maximal. As usually defined, the IC50 is the concentration needed to halve the response being measured.

The test system of one experiment is PC-3. As to the kind of experiment: Tumor cell line proliferation assay (Alamar Blue), PC-3. It is filed as cell-based. Conditions: Homo sapiens; PC-3 cells. The protocol: The ability of one or more subject compounds to inhibit tumor cell line proliferation is determined according to standard procedures known in the art. For instance, an in vitro cellular proliferation assay can be performed to measure the metabolic activity of live cells. The assay is performed in a 96 well microtiter plate using Alamar Blue reduction. Human tumor cell lines are obtained from ATCC (e.g., MCF7, U-87 MG, MDA-MB-468, PC-3), grown to confluency in T75 flasks, trypsinized with 0.25% trypsin, washed one time with Tumor Cell Media (DMEM+10% FBS), and plated in 90 ul at 5,000 cells/well in Tumor Cell Media. A compound disclosed herein is diluted in Tumor Cell Media and added in a 10 ul volume. Plates are incubated for 72 hours at 37 C and 5% CO2. A volume of 10 uL of Alamar Blue reagent is added to each well and plates are incubated for 3 hours at 37 C and 5% CO2. Alamar Blue fluoresce is read at 560Ex/590Em, and IC50 values are calculated using GraphPad Prism 5.
In general terms: Resazurin is reduced to fluorescent resorufin, in cell work by metabolically active cells.

Another experiment addresses T1, PI3K β (p110β/p85α) (Homo sapiens, UniProt P42338).
T1 construct: purchased Upstate
The experiment is described as follows: PI3K β (p110β/p85α) inhibition assay. It is filed as biochemical. Here is the method:
(§1) Class I PI3-Ks can be either purchased (p110α/p85α, p110β/p85α, p110δ/p85α from Upstate, and p110γ from Sigma) or expressed as previously described (Knight at al., 2004). IC50 values are measured using either a standard TLC assay for lipid kinase activity (described below) or a high-throughput membrane capture assay. Kinase reactions are performed by preparing a reaction mixture containing kinase, inhibitor (2% DMSO final concentration), buffer (25 mM HEPES, pH 7.4, 10 mM MgCl2), and freshly sonicated phosphatidylinositol (100 μg/ml). Reactions are initiated by the addition of ATP containing 10 μCi of γ-32P-ATP to a final concentration 10 or 100 μM and allowed to proceed for 5 minutes at room temperature. For TLC analysis, reactions are then terminated by the addition of 105 μl 1N HCl followed by 160 μl CHCl3:MeOH (1:1). The biphasic mixture is vortexed, briefly centrifuged, and the organic phase is transferred to a new tube using a gel loading pipette tip precoated with CHCl3. This extract is spotted on TLC plates and developed for 3-4 hours in a 65:35 solution of n-propanol: 1M acetic acid. The TLC plates are then dried, exposed to a phosphorimager screen (Storm, Amersham), and quantitated. For each compound, kinase activity is measured at 10-12 inhibitor concentrations representing two-fold dilutions from the highest concentration tested (typically, 200 μM).
(§2) Other commercial kits or systems for assaying PI3-K activities are avaiable. The commercially available kits or systems can be used to screen for inhibitors and/or agonists of PI3-Ks including but not limited to PI 3-Kinase α, β, δ, and γ. Anr exemplary system is PI 3-Kinase (human) HTRF™ Assay from Upstate. […] Briefly, the assay is a time resolved FRET assay that indirectly measures PIP3 product formed by the activity of a PI3-K. The kinase reaction is performed in a microtitre plate (e.g., a 384 well microtitre plate). The total reaction volume is approximately 20 ul per well. In the first step, each well receives 2 ul of test compound in 20% dimethylsulphoxide resulting in a 2% DMSO final concentration. Next, approximately 14.5 ul of a kinase/PIP2 mixture (diluted in 1× reaction buffer) is added per well for a final concentration of 0.25-0.3 ug/ml kinase and 10 uM PIP2. The plate is sealed and incubated for 15 minutes at room temperature. To start the reaction, 3.5 ul of ATP (diluted in 1× reaction buffer) is added per well for a final concentration of 10 uM ATP. The plate is sealed and incubated for 1 hour at room temperature. The reaction is stopped by adding 5 ul of Stop Solution per well and then 5 ul of Detection Mix is added per well. The plate is sealed, incubated for 1 hour at room temperature, and then read on an appropriate plate reader. Data is analyzed and IC50s are generated using GraphPad Prism 5.

The next experiment deals with T2, mTOR (Homo sapiens, UniProt P42345).
T2 construct: purchased Invitrogen
The experiment is described as follows: mTOR inhibition assay. It is filed as biochemical. Here is the method: The compounds described herein can be tested against recombinant mTOR (Invitrogen) in an assay containing 50 mM HEPES, pH 7.5, 1 mM EGTA, 10 mM MgCl2, 2.5 mM, 0.01% Tween, 10 μM ATP (2.5 μCi of […]), and 3 μg/mL BSA. Rat recombinant PHAS-1/4EBP1 (Calbiochem; 2 mg/mL) is used as a substrate. Reactions are terminated by spotting onto nitrocellulose, which is washed with 1M NaCl/1% phosphoric acid (approximately 6 times, 5-10 minutes each). Sheets are dried and the transferred radioactivity quantitated by phosphorimaging.
Other kits or systems for assaying mTOR activity are commercially avaiable. For instance, one can use Invitrogen's LanthaScreen™ Kinase assay to test the inhibitors of mTOR disclosed herein. This assay is a time resolved FRET platform that measures the phosphorylation of GFP labeled 4EBP1 by mTOR kinase. The kinase reaction is performed in a white 384 well microtitre plate. The total reaction volume is 20 ul per well and the reaction buffer composition is 50 mM HEPES pH7.5, 0.01% Polysorbate 20, 1 mM EGTA, 10 mM MnCl2, and 2 mM DTT. In the first step, each well receives 2 ul of test compound in 20% dimethylsulphoxide resulting in a 2% DMSO final concentration. Next, 8 ul of mTOR diluted in reaction buffer is added per well for a 60 ng/ml final concentration. To start the reaction, 10 ul of an ATP/GFP-4EBP1 mixture (diluted in reaction buffer) is added per well for a final concentration of 10 uM ATP and 0.5 uM GFP-4EBP1. The plate is sealed and incubated for 1 hour at room temperature. The reaction is stopped by adding 10 ul per well of a Tb-anti-pT46 4EBP1 antibody/EDTA mixture (diluted in TR-FRET buffer) for a final concentration of 1.3 nM antibody and 6.7 mM EDTA. The plate is sealed, incubated for 1 hour at room temperature, and then read on a plate reader set up for LanthaScreen™ TR-FRET. Data is analyzed and IC50s are generated using GraphPad Prism 5.

In the next experiment the target is T3, PI3K γ (p110γ) (Homo sapiens, UniProt P48736).
T3 construct: purchased Sigma
As to the kind of experiment: PI3K γ (p110γ) inhibition assay. It is filed as biochemical. Here is the method:
as §1, §2

Another experiment addresses T4, PI3K α (p110α/p85α) (Homo sapiens, UniProt P42336).
T4 construct: purchased Upstate
The experiment is described as follows: PI3K α (p110α/p85α) inhibition assay. It is filed as biochemical. Here is the method: as §1, §2

For the next experiment, the target named is T5, PI3K δ (p110δ/p85α) (Homo sapiens, UniProt O00329).
T5 construct: purchased Upstate
The experiment is described as follows: PI3K δ (p110δ/p85α) inhibition assay. It is filed as biochemical. Here is the method:
as §1, with “IC50” for “Class I PI3-Ks can be either purchased (p110α/p85α, p110β/p85α, p110δ/p85α from Upstate, and p110γ from Sigma) or expressed as previously described (Knight at al., 2004). IC50”, “quantitated.” for “quantitated. For each compound, kinase activity is measured at 10-12 inhibitor concentrations representing two-fold dilutions from the highest concentration tested (typically, 200 μM).”
as §2

T1 sequence (P42338 whole entry): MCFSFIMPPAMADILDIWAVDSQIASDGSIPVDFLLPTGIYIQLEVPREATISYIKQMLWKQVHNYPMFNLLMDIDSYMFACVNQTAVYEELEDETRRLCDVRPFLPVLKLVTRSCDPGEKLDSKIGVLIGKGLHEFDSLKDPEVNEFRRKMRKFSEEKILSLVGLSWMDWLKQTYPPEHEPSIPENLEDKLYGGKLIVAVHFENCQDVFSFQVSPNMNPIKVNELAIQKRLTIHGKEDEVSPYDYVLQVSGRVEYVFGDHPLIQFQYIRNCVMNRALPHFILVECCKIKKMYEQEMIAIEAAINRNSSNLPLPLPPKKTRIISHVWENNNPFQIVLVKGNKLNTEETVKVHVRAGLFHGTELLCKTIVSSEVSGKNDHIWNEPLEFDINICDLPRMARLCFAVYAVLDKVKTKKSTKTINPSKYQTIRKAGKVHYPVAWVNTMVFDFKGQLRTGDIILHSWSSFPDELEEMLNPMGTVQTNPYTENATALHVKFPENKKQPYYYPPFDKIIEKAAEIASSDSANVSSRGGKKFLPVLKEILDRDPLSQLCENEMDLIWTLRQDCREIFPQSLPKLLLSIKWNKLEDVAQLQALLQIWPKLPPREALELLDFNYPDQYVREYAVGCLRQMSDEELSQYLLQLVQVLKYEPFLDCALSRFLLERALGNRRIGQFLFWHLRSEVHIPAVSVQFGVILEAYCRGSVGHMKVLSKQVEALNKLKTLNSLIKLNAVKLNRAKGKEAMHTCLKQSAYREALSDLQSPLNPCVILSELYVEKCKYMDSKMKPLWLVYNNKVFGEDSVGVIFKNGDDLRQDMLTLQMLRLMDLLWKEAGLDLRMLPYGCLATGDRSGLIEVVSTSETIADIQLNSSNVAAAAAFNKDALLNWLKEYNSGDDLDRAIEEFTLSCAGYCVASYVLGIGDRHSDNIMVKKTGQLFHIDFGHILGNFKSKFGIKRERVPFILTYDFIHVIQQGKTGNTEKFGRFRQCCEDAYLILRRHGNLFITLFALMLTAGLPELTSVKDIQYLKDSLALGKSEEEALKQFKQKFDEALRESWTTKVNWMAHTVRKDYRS
T1 sequence (P27986 whole entry partner): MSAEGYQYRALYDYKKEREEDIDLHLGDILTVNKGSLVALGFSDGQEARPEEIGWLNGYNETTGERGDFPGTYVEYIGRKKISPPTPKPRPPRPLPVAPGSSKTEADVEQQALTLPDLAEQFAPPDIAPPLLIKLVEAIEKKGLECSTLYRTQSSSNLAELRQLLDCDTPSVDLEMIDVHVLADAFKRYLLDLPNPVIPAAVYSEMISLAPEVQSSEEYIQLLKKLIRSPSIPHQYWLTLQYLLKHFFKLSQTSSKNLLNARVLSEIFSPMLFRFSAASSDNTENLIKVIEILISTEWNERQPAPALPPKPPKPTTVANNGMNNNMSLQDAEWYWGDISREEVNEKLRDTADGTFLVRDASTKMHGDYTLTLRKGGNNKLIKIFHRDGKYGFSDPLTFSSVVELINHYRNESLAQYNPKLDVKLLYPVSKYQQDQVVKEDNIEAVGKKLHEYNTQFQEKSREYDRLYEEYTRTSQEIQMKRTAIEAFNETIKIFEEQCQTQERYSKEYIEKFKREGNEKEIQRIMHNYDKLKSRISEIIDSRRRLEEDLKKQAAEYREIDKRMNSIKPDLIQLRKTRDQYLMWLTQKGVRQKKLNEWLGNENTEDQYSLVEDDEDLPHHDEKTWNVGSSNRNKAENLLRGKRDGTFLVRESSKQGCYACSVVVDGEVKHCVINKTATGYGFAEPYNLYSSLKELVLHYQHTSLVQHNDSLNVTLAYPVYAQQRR
T4 sequence (P42336 whole entry): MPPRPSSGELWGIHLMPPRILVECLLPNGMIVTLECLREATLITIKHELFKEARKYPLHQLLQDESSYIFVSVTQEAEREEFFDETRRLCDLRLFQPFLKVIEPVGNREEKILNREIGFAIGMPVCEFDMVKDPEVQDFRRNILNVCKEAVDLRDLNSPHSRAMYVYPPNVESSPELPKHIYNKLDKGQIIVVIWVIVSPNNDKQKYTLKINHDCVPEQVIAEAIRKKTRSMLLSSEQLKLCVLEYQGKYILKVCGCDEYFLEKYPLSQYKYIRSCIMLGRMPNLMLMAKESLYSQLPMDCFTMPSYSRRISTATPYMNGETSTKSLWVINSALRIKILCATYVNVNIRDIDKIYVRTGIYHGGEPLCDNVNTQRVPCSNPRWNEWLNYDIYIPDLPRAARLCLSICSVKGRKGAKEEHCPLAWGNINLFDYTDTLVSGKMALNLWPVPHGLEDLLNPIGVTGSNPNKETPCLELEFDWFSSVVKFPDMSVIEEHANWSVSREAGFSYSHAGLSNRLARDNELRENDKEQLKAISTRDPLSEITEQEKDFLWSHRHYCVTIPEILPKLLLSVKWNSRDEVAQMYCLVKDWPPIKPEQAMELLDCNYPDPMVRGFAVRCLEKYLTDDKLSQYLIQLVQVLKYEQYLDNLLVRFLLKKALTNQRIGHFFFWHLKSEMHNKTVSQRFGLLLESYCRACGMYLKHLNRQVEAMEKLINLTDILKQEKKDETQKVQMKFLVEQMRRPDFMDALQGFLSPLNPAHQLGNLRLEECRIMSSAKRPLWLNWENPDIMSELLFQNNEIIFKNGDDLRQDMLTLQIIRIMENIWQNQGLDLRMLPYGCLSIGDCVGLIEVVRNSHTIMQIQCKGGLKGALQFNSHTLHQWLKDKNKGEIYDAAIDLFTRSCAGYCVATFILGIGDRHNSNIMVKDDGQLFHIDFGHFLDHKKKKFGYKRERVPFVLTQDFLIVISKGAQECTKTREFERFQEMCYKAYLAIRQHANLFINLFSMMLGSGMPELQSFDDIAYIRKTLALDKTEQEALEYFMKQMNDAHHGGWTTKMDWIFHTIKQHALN
T4 sequence (P27986 whole entry partner): as the sequence (P27986 whole entry partner) above
T2 sequence (P42345 1360-2549 limits assumed): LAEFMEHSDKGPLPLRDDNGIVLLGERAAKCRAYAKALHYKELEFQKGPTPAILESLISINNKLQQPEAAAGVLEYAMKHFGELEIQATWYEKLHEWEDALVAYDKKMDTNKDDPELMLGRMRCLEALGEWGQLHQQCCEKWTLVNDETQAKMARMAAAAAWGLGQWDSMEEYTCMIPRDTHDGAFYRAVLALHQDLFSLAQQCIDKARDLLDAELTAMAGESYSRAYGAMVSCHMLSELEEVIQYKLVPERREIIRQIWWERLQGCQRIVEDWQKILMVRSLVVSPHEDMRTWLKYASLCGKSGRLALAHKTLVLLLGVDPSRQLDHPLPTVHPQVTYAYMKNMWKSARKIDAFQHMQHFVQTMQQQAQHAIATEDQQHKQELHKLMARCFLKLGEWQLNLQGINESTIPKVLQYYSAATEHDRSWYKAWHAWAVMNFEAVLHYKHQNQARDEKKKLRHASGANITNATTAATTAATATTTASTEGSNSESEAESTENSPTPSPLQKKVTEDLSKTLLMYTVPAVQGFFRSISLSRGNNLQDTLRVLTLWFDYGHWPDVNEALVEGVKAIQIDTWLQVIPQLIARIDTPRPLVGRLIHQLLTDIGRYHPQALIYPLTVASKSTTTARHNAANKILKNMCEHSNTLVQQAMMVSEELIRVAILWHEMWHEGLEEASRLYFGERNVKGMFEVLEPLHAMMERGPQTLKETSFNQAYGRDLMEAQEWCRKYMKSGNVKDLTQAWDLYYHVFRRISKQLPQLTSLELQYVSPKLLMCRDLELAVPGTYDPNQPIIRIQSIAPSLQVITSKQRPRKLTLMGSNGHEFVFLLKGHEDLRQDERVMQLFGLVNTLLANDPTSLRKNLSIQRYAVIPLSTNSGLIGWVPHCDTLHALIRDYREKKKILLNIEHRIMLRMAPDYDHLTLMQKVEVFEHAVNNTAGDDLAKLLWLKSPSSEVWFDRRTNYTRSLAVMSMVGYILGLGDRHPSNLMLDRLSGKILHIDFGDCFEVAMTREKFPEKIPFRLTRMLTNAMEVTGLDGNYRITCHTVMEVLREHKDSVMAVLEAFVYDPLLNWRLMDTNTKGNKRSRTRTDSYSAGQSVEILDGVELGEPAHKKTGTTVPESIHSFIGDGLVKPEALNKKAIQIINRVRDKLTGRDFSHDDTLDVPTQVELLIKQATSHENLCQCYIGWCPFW

Compound `Cc1nc(N)nc2ccc(-c3cccc(O)c3)cc12` [Compound 4] gave an EC50 in the experiment with PC-3 of no more than 20000 nM. Also, the IC50 at PI3K β (p110β/p85α) is less than 500 nM; against mTOR, greater than 1000 nM; against PI3K γ (p110γ), less than 100 nM; at PI3K α (p110α/p85α), less than 500 nM; on PI3K δ (p110δ/p85α) (read-out: PI3K δ IC50) it was less than 100 nM.

As for `CNc1nc(C)c2cc(-c3ccc(F)c(O)c3)ccc2n1` [Compound 9], the EC50 with PC-3 is no more than 20000 nM. Also, the IC50 against mTOR was greater than 1000 nM; at PI3K α (p110α/p85α), less than 1000 nM.

For `CNc1nc(C)c2cc(-c3ccc(O)c(F)c3)ccc2n1` [Compound 11], the EC50 with PC-3 was no more than 50000 nM. Also, the figures for the IC50 on mTOR and on PI3K α (p110α/p85α) were greater than 1000 nM and less than 1000 nM, respectively.

`CNc1nc(C)c2cc(-c3cc(O)cc(F)c3)ccc2n1` [Compound 8]: the EC50 in the experiment with PC-3 was no more than 20000 nM. Also, the IC50 against PI3K β (p110β/p85α) was less than 1000 nM; on mTOR, greater than 1000 nM; against PI3K γ (p110γ), less than 100 nM; against PI3K α (p110α/p85α) it was less than 500 nM; at PI3K δ (p110δ/p85α), less than 100 nM.

In the case of `CNc1nc(C)c2cc(-c3cccc(O)c3)ccc2n1` [Compound 1], in the experiment with PC-3, the EC50 was no more than 50000 nM. The IC50 against PI3K β (p110β/p85α) was greater than 1000 nM; at mTOR, greater than 1000 nM; against PI3K γ (p110γ), less than 100 nM; on PI3K α (p110α/p85α), less than 500 nM; on PI3K δ (p110δ/p85α) (read-out: PI3K δ IC50) it was less than 500 nM.

Compound `Cc1nc(Nc2cccnc2)nc2ccc(-c3cccc(O)c3)cc12` [Compound 6] had an EC50 in the experiment with PC-3 of no more than 50000 nM. For the same compound, the half-maximal inhibitory concentration (IC50) at PI3K β (p110β/p85α) is greater than 1000 nM; against mTOR, greater than 1000 nM; on PI3K γ (p110γ), less than 100 nM; against PI3K α (p110α/p85α), less than 100 nM; at PI3K δ (p110δ/p85α) (read-out: PI3K δ IC50), less than 100 nM.

As to `Nc1ncc2cc(-c3cccc(O)c3)ccc2n1` [Compound 3], the EC50 with PC-3 is no more than 50000 nM. In addition, the IC50 against mTOR is greater than 1000 nM; against PI3K α (p110α/p85α), less than 500 nM.

For `CNc1nc(C)c2cc(-c3cnc4[nH]ccc4c3)ccc2n1` [Compound 2], the EC50 in the experiment on PC-3 is no more than 50000 nM. Besides, the IC50 on PI3K β (p110β/p85α) was greater than 1000 nM; at mTOR, greater than 1000 nM; on PI3K γ (p110γ), less than 500 nM; on PI3K α (p110α/p85α), less than 1000 nM; at PI3K δ (p110δ/p85α) (read-out: PI3K δ IC50) it was greater than 1000 nM.

In the experiment with PC-3, `Cc1nc(N)nc2ccc(-c3cnc4[nH]ccc4c3)cc12` [Compound 5] had an EC50 of no more than 50000 nM. Also, the IC50 is greater than 1000 nM at mTOR and less than 1000 nM against PI3K α (p110α/p85α).

Compound `Cc1nc(Nc2cccnc2)nc2ccc(-c3cc(O)cc(F)c3)cc12` [Compound 7] came in with an EC50 in the experiment with PC-3 of no more than 20000 nM. The IC50 is greater than 1000 nM at PI3K β (p110β/p85α); greater than 1000 nM at mTOR; less than 100 nM against PI3K γ (p110γ); less than 100 nM on PI3K α (p110α/p85α); less than 100 nM on PI3K δ (p110δ/p85α) (read-out: PI3K δ IC50).

Turning to `CNc1nc(C)c2cc(-c3ccc(O)c(Cl)c3)ccc2n1` [Compound 10], the EC50 with PC-3 is no more than 20000 nM. Moreover, the values for the IC50 against mTOR and against PI3K α (p110α/p85α) were greater than 1000 nM and less than 1000 nM, respectively.

These data come from patent US9359349B2, “Substituted quinazolines as kinase inhibitors” (Intellikine LLC, priority 2007, dated 2016).
